Results: paper PMC6792352, “Limited Chemical Structural Diversity Found to Modulate Thyroid Hormone Receptor in the Tox21 Chemical Library” (Environmental Health Perspectives, 2019)
Structures can show the parent of a compound that is named as a salt.

Assay: in vitro
Conditions: rat, gh3-tre-luc cells

| Compound | CC50 at 24 h (AC50 (uM) modified / 1000) [µM] | further results |
| --- | --- | --- |
| CCCN(C1CCN(C(=O)C2CCNCC2)CC1)[C@@H]1CCc2ccc(OC)cc2C1 [PharmaGSID_48509] | 69.1 |  |
| O=C(O)c1cccc(N(Cc2cccnc2)c2ccc(OC(F)F)c(OC(F)F)c2)c1 [PharmaGSID_48510] | 75.3 |  |
| COc1cc(C(=O)NC2CCN(C)CC2)ccc1Nc1ncc2c(n1)N(C1CCCC1)CC(F)(F)C(=O)N2C [PharmaGSID_48511] | 1.83 |  |
| Cc1cc(F)ccc1-c1cc(N2CC[C@@H](O)[C@H]2CO)ncc1N(C)C(=O)C(C)(C)c1cc(C(F)(F)F)cc(C(F)(F)F)c1 [PharmaGSID_48513] | 12.5 |  |
| COc1ccc(/C=C/S(=O)(=O)NC(=O)c2ccc(C)cc2Cl)cc1 [PharmaGSID_48514] | > 90 |  |
| O=C(NS(=O)(=O)/C=C/c1ccccc1)c1ccc(F)cc1Cl [PharmaGSID_48516] | > 90 |  |
| O=C(NS(=O)(=O)/C=C/c1cccs1)c1ccc(F)cc1Br [PharmaGSID_48518] | > 90 |  |
| CN1C(=O)N(c2ccccc2Br)Cc2cnc(Nc3ccc4c(c3)OCC(CO)O4)nc21 (centres unmarked) [PharmaGSID_48519] | 37.2 |  |
| CCCC[C@H]1CN(CC2CCOCC2)C(=O)OC12CCN(C1(C)CCN(C(=O)c3c(C)ncnc3C)CC1)CC2 [PharmaGSID_48521] | > 80 |  |
| CCOc1ccc(/N=C(\C)Nc2ccc(OCC)cc2)cc1 [Phenacaine] | > 50 |  |
| NC(=O)NC(=O)Cc1ccccc1 [Phenacemide] | > 50 |  |
| CCOc1ccc(NC(C)=O)cc1 [Phenacetin] | > 50 |  |
| c1ccc2c(c1)ccc1ccccc12 [Phenanthrene] | > 90 |  |
| Cc1cc(=O)n(-c2ccccc2)n1C [Phenazone] | > 50 |  |
| CC(Oc1ccccc1)C(=O)N[C@@H]1C(=O)N2[C@@H]1SC(C)(C)[C@@H]2C(=O)O (some centres unmarked) [Phenethicillin potassium] | > 20 |  |
| Nc1ccccc1C(=O)OCCc1ccccc1 [Phenethyl anthranilate] |  | CC50 at 24 h (AC50 (uM) modified / 1000, Tox21_110001=Tox21_202175, viability, 1 nM T3 present, 24 h): > 90 µM |
| BrCCc1ccccc1 [Phenethyl bromide] |  | CC50 at 24 h (AC50 (uM) modified / 1000, Tox21_110001=Tox21_200102, viability, 1 nM T3 present, 24 h): > 90 µM |
| S=C=NCCc1ccccc1 [Phenethyl isothiocyanate] | 79.7 |  |
| C/C=C(\C)C(=O)OCCc1ccccc1 [Phenethyl tiglate] | > 90 |  |
| O=C1c2ccccc2C(=O)C1c1ccccc1 [Phenindione] | > 20 |  |
| CN(C)CCC(c1ccccc1)c1ccccn1 (centres unmarked) [Pheniramine maleate] | > 90 |  |
| COC(=O)Nc1cccc(OC(=O)Nc2cccc(C)c2)c1 [Phenmedipham] |  | CC50 at 24 h (AC50 (uM) modified / 1000, Tox21_110001=Tox21_201295, viability, 1 nM T3 present, 24 h): > 90 µM |
| CC1NCCOC1c1ccccc1 (centres unmarked) [Phenmetrazine hydrochloride] |  | CC50 at 24 h (AC50 (uM) modified / 1000, Tox21_110001=Tox21_112166, viability, 1 nM T3 present, 24 h): > 50 µM |
| CCC1(c2ccccc2)C(=O)NC(=O)NC1=O [Phenobarbital] | > 90 |  |

| Compound | CC50 at 24 h (AC50 (uM) modified / 1000) [µM] | further results |
| --- | --- | --- |
| O=S1(=O)OC(c2ccc(O)cc2)(c2ccc(O)cc2)c2ccccc21 [Phenol Red sodium salt] | 46.9 |  |
| Oc1ccccc1 [Phenol] | > 50 |  |
| O=C(O)c1ccccc1C(c1ccc(O)cc1)c1ccc(O)cc1 [Phenolphthalin] | > 90 |  |
| c1ccc2c(c1)Nc1ccccc1S2 [Phenothiazine] | > 90 |  |
| CC(C)=CC1C(C(=O)OCc2cccc(Oc3ccccc3)c2)C1(C)C (centres unmarked) [Phenothrin] | > 90 |  |
| c1ccc2c(c1)Oc1ccccc1S2 [Phenoxathiin] | > 90 |  |
| O=C(O)COc1ccccc1 [Phenoxyacetic acid] |  | CC50 at 24 h (AC50 (uM) modified / 1000, Tox21_110001=Tox21_111092, viability, 1 nM T3 present, 24 h): > 50 µM; CC50 at 24 h (AC50 (uM) modified / 1000, Tox21_110001=Tox21_201854, viability, 1 nM T3 present, 24 h): > 90 µM |
| CC(C)C(=O)OCCOc1ccccc1 [Phenoxyethyl isobutyrate] | > 90 |  |
| CCC(=O)OCCOc1ccccc1 [Phenoxyethyl propionate] | > 90 |  |
| CC(COc1ccccc1)NN (centres unmarked) [Phenoxypropazine] | > 50 |  |
| NC(=O)OCCCc1ccccc1 [Phenprobamate] | > 50 |  |
| CN1C(=O)CC(c2ccccc2)C1=O (centres unmarked) [Phensuximide] | > 50 |  |
| CCOC(=O)C(SP(=S)(OC)OC)c1ccccc1 (centres unmarked) [Phenthoate] | > 90 |  |
| Cc1ccc(N(CC2=NCCN2)c2cccc(O)c2)cc1 [Phentolamine] | 45.1 |  |
| O=C(Oc1ccccc1)c1ccc2ccccc2c1O [Phenyl 1-hydroxy-2-naphthoate] | > 90 |  |
| Nc1ccc(C(=O)Oc2ccccc2)c(O)c1 [Phenyl 4-aminosalicylate] | > 50 |  |
| O=C(CCCCCCCCC#CI)Oc1ccccc1 [Phenyl 11-iodo-10-undecynoate] | > 50 |  |
| O=C(Oc1ccccc1)c1ccccc1 [Phenyl benzoate] | > 90 |  |
| O=P(O)(O)Oc1ccccc1 [Phenyl dihydrogen phosphate] | > 90 |  |
| c1ccc(OCC2CO2)cc1 (centres unmarked) [Phenyl glycidyl ether] | > 90 |  |
| S=C=Nc1ccccc1 [Phenyl isothiocyanate] | > 90 |  |
| O=C(Oc1ccccc1)c1ccccc1O [Phenyl salicylate] | > 50 |  |
| O=CCc1ccccc1 [Phenylacetaldehyde] | > 90 |  |
| O=C(O)Cc1ccccc1 [Phenylacetic acid] |  | CC50 at 24 h (AC50 (uM) modified / 1000, Tox21_110001=Tox21_113042, viability, 1 nM T3 present, 24 h): > 50 µM; CC50 at 24 h (AC50 (uM) modified / 1000, Tox21_110001=Tox21_200533, viability, 1 nM T3 present, 24 h): > 90 µM |

| Compound | CC50 at 24 h (AC50 (uM) modified / 1000) [µM] | further results |
| --- | --- | --- |
| N[C@@H](Cc1ccccc1)C(=O)O [Phenylalanine] | > 50 |  |
| CCCCC1C(=O)N(c2ccccc2)N(c2ccccc2)C1=O [Phenylbutazone] | > 90 |  |
| CNC[C@H](O)c1cccc(O)c1 [Phenylephrine hydrochloride] | > 90 |  |
| NNCCc1ccccc1 [Phenylethylhydrazine sulfate] | 32.3 |  |
| O=CC(=O)c1ccccc1 [Phenylglyoxal] | > 90 |  |
| NNc1ccccc1 [Phenylhydrazine hydrochloride] |  | CC50 at 24 h (AC50 (uM) modified / 1000, Tox21_110001=Tox21_111618, viability, 1 nM T3 present, 24 h): > 50 µM; CC50 at 24 h (AC50 (uM) modified / 1000, Tox21_110001=Tox21_202198, viability, 1 nM T3 present, 24 h): 40.6 µM; CC50 at 24 h (AC50 (uM) modified / 1000, Tox21_110001=Tox21_302936, viability, 1 nM T3 present, 24 h): 66.7 µM |
| NNc1ccccc1 [Phenylhydrazine] |  | CC50 at 24 h (AC50 (uM) modified / 1000, Tox21_110001=Tox21_201977, viability, 1 nM T3 present, 24 h): 71 µM; CC50 at 24 h (AC50 (uM) modified / 1000, Tox21_110001=Tox21_303018, viability, 1 nM T3 present, 24 h): 42 µM |
| O=C(Oc1ccccc1)c1ccc(O)cc1 [Phenylparaben] | > 90 |  |
| OP(O)c1ccccc1 [Phenylphosphinic acid] | > 90 |  |
| O=P(O)(O)c1ccccc1 [Phenylphosphonic acid] |  | CC50 at 24 h (AC50 (uM) modified / 1000, Tox21_110001=Tox21_302060, viability, 1 nM T3 present, 24 h): > 90 µM |
| C[C@H](N)[C@H](O)c1ccccc1 [Phenylpropanolamine hydrochloride] |  | CC50 at 24 h (AC50 (uM) modified / 1000, Tox21_110001=Tox21_110431, viability, 1 nM T3 present, 24 h): > 20 µM |
| O=C(O)C(=O)Cc1ccccc1 [Phenylpyruvic acid] | > 90 |  |
| O=C(CCc1ccc(O)cc1)c1c(O)cc(O)cc1O [Phloretin] | 61.2 |  |
| CCOP(=S)(OCC)SCSCC [Phorate] |  | CC50 at 24 h (AC50 (uM) modified / 1000, Tox21_110001=Tox21_300398, viability, 1 nM T3 present, 24 h): > 90 µM |
| CC(C)=CC(=O)C=C(C)C [Phorone] | > 90 |  |
| CCOP(=S)(OCC)SCn1c(=O)oc2cc(Cl)ccc21 [Phosalone] |  | CC50 at 24 h (AC50 (uM) modified / 1000, Tox21_110001=Tox21_202294, viability, 1 nM T3 present, 24 h): > 100 µM; CC50 at 24 h (AC50 (uM) modified / 1000, Tox21_110001=Tox21_300811, viability, 1 nM T3 present, 24 h): 80.4 µM |
| CCOP(=O)(N=C1SCCS1)OCC [Phosfolan] |  | CC50 at 24 h (AC50 (uM) modified / 1000, Tox21_110001=Tox21_301905, viability, 1 nM T3 present, 24 h): > 90 µM |
| COP(=S)(OC)SCN1C(=O)c2ccccc2C1=O [Phosmet] |  | CC50 at 24 h (AC50 (uM) modified / 1000, Tox21_110001=Tox21_110993, viability, 1 nM T3 present, 24 h): > 50 µM; CC50 at 24 h (AC50 (uM) modified / 1000, Tox21_110001=Tox21_202316, viability, 1 nM T3 present, 24 h): > 90 µM |
| CCN(CC)C(=O)C(Cl)=C(C)OP(=O)(OC)OC [Phosphamidon] |  | CC50 at 24 h (AC50 (uM) modified / 1000, Tox21_110001=Tox21_112409, viability, 1 nM T3 present, 24 h): > 50 µM; CC50 at 24 h (AC50 (uM) modified / 1000, Tox21_110001=Tox21_202100, viability, 1 nM T3 present, 24 h): > 90 µM |
| O=C(O)CP(=O)(O)O [Phosphonoacetic acid] | > 50 |  |
| CCOP(=S)(OCC)O/N=C(\C#N)c1ccccc1 [Phoxim] |  | CC50 at 24 h (AC50 (uM) modified / 1000, Tox21_110001=Tox21_113357, viability, 1 nM T3 present, 24 h): > 50 µM; CC50 at 24 h (AC50 (uM) modified / 1000, Tox21_110001=Tox21_301580, viability, 1 nM T3 present, 24 h): > 90 µM |
| NC(=O)c1ccccc1C(N)=O [Phthalamide] | > 90 |  |
| c1ccc2cnncc2c1 [Phthalazine] | > 90 |  |
